Measured values from US6489166B1, “Plant regeneration method for mature seed-derived callus in zoysiagrass” (Korea Kumho Petrochemical Co., Ltd., priority 2001, dated 2002).
Like-named read-outs stand apart in the source and are kept apart here.

Key:
[1] = system: Type I calli derived from mature seeds of zoysiagrass; details: for Calli with green shoot (%) / Number of shoots per callus lump / Shoots over 2 mm (%): Type I calli, 2 weeks
Method: To examine the effects of various sugars on the plant regeneration efficiency from calli, the type I calli were dissected into lumps with a diameter of 2 mm and grown on the MS media containing 1 mg/L TDZ and 3% (w/v) fructose, galactose, glucose, maltose, or sucrose. For each treatment, 3 MS plates, each with 25 calli, were used. […] To determine the optimal concentration of maltose, the type I calli were grown on the MS media supplemented with various concentrations of maltose at 1.5, 3.0, 4.5, 6.0, 7.5, or 9%.
The effects of different sugars on the plant regeneration efficiency from calli were examined using the shoot induction media (SIM) supplemented with different sugars.
Type I calli were cultured on the MS medium containing 1 mg/L TDZ for 2 weeks. Each value in the second column represents a mean calculated from 25 calli per each experiment. Each value in the third column represents a mean calculated from 10 calli for each experiment.
Type I calli were cultured on the MS medium containing 1 mg/L TDZ and various concentrations of maltose for 2 weeks.

[2] = system: mature seeds of zoysiagrass; assay: Callus induction from mature seeds on MS media with growth hormone combinations; assay type: cell-based, Zoysia japonica Steud.; details: for Callus producing seeds (%) / Number of callus producing seeds: MS, 3 months
Method: Seeds of zoysiagrass (Zoysia japonica Steud.), from which seed coats were first removed, were sterilized by soaking in 70% ethyl alcohol for 1 min and subsequently in 5% sodium hypochlorite solution supplemented with 0.001% (v/v) Tween 20 for 15 min. The sterilized seeds were then thoroughly rinsed with sterilized distilled water 3-4 times. They were then germinated and grown for 2 weeks on the N6 media (pH 5.8) containing 1 mg/L 2,4-dichlorophenoxyacetic acid, 3% sucrose, and 0.2% gelite and subject to callus induction. The callus induction and growth was carried out in a controlled environment culture room set at 26° C. and 70% humidity in the dark.
(§1) To examine the effects of plant growth hormones on the callus induction efficiency and the callus morphology, sterilized seeds were placed and cultured on the MS plates supplemented with 4 mg/L thiamine-HCl and 100 mg/L α-ketoglutaric acid. The MS plates, each with a diameter of 9 cm, were further supplemented with various amounts of 2,4-dichlorophenoxyacetic acid (0, 1, 2, 4, 8 mg/L) and 6-benzylaminopurine (0, 0.02, 0.2, 2, 4 mg/L). One hundred seeds were grown per each MS plate, and 3 plates were used for each treatment group. After three months, the number of seeds from which calli had been induced was counted. For the morphological classification of calli, calli were induced and grown on the MS media supplemented with 6-benzylaminopurine and 2,4-dichlorophenoxyacetic acid under the identical condition as described above for three months. They could be morphologically classified into four distinct groups (I-IV), based on the callus morphology, color, and rigidity.
To investigate the effects of plant growth hormones on the callus induction, the mature seed-derived callus induction rates were measured on the MS media supplemented with different amounts of 2,4-dichlorophenoxyacetic acid and 6-benzylaminopurine after grown for three months.
Seeds were plated and grown on the MS media containing 4 mg/L thiamine-HCl, 100 mg/L α-ketoglutaric acid, and different concentration combinations of 2,4-dichlorophenoxyacetic acid and 6-benzylaminopurine for 3 months.

[3] = system: callus derived from mature seeds of zoysiagrass; assay: Morphology (types I-IV) of callus induced with growth hormone combinations; assay type: cell-based, Zoysia japonica Steud.; details: 6-benzylaminopurine 0 mg/L, MS, 3 months
Method: as §1
Calli induced on the MS media supplemented with different concentration combinations of 2,4-dichlorophenoxyacetic acid and 6-benzylaminopurine were morphologically and physiologically analysed. Four distinct callus types (types I to IV) could be apparently discriminated by callus color, morphology, and rigidity (FIG. 1).
Seeds were plated on the MS media containing 4 mg/L thiamine-HCl, 100 mg/L α-ketoglutaric acid, and different concentration combinations of 2,4-dichlorophenoxyacetic acid and 6-benzylaminopurine for 3 months. Callus morphologies were rated by; type I: with yellow and differentiated structure, type II: with white, non-friable, and compact structure, type III: with yellow, friable, and compact structure, Type IV: with whitish yellow, friable, soft, and watery appearance. Type I˜III represents the sum of the numbers of types I to III.

[4] = system: Type I calli derived from mature seeds of zoysiagrass; assay: Effects of cytokinins on shoot induction from callus; assay type: cell-based, Zoysia japonica Steud.; details: for Number of shoots over 5 mm / Number of shoots per callus lump: Type I calli, MS with 30 g/L maltose, 2 weeks
Method: The media were additionally supplemented with 1 or 4 mg/L of kinetin, 6-benzylaminopurine, or TDZ. Each treatment consisted of 3 MS plates, each with 16 calli.

[5] = system: Type I calli derived from mature seeds of zoysiagrass; assay: as above; assay type: cell-based, Zoysia japonica Steud.; details: 44 Type I calli tested, MS with 30 g/L maltose, 2 weeks
[6] = maltose 15 g/L, MS with 1 mg/L TDZ
[7] = maltose 30 g/L, MS with 1 mg/L TDZ
[8] = maltose 45 g/L, MS with 1 mg/L TDZ
[9] = maltose 60 g/L, MS with 1 mg/L TDZ
[10] = maltose 75 g/L, MS with 1 mg/L TDZ
[11] = maltose 90 g/L, MS with 1 mg/L TDZ
[12] = sugar 30 g/L, MS medium with 1 mg/L TDZ
[13] = 2,4-dichlorophenoxyacetic acid 1 mg/L, 6-benzylaminopurine 0 mg/L
[14] = 2,4-dichlorophenoxyacetic acid 2 mg/L, 6-benzylaminopurine 0 mg/L
[15] = 2,4-dichlorophenoxyacetic acid 4 mg/L, 6-benzylaminopurine 0 mg/L
[16] = 2,4-dichlorophenoxyacetic acid 8 mg/L, 6-benzylaminopurine 0 mg/L
[17] = 2,4-dichlorophenoxyacetic acid 1 mg/L
[18] = 2,4-dichlorophenoxyacetic acid 2 mg/L
[19] = 2,4-dichlorophenoxyacetic acid 4 mg/L
[20] = 2,4-dichlorophenoxyacetic acid 8 mg/L
[21] = 2,4-dichlorophenoxyacetic acid 0 mg/L, 6-benzylaminopurine 0.02 mg/L
[22] = 2,4-dichlorophenoxyacetic acid 0 mg/L, 6-benzylaminopurine 0.2 mg/L
[23] = 2,4-dichlorophenoxyacetic acid 0 mg/L, 6-benzylaminopurine 2 mg/L
[24] = 2,4-dichlorophenoxyacetic acid 0 mg/L, 6-benzylaminopurine 4 mg/L

OC[C@H]1O[C@H](O[C@H]2[C@H](O)[C@@H](O)C(O)O[C@@H]2CO)[C@H](O)[C@@H](O)[C@@H]1O (mixture of isomers) [Maltose, maltose]
Colour of leaf and stem margins of regenerated plants [1]: exhibited color caused by accumulation of anthocyanin-related pigments | Physical stress on cultured cells (anthocyanin accumulation in regenerated shoots) [1]: confers a physical stress on the cultured cells | Calli with green shoot (%) [1, 6]: 37.3% | Number of shoots per callus lump [1, 6]: 9.9 ± 0.1 | Shoots over 2 mm (%) [1, 6]: 45.2 ± 3.4% | Calli with green shoot (%) [1, 7]: 36.0% | Number of shoots per callus lump [1, 7]: 12.9 ± 1.2 | Shoots over 2 mm (%) [1, 7]: 51.4 ± 3.9% | Calli with green shoot (%) [1, 8]: 32.0% | Number of shoots per callus lump [1, 8]: 10.2 ± 1.3 | Shoots over 2 mm (%) [1, 8]: 32.1 ± 3.6% | Calli with green shoot (%) [1, 9]: 29.3% | Number of shoots per callus lump [1, 9]: 4.9 ± 0.6 | Shoots over 2 mm (%) [1, 9]: 14.5 ± 5.5% | Calli with green shoot (%) [1, 10]: 30.7% | Number of shoots per callus lump [1, 10]: 8.3 ± 0.9 | Shoots over 2 mm (%) [1, 10]: 27.3 ± 4.0% | Calli with green shoot (%) [1, 11]: 28.0% | Number of shoots per callus lump [1, 11]: 2.5 ± 0.3 | Shoots over 2 mm (%) [1, 11]: 6.7 ± 0.2% | Calli with green shoot (%) [1, 12]: 33.3 ± 2.7% | Number of shoots per callus lump [1, 12]: 9.4 ± 0.3 | Shoots over 2 mm (%) [1, 12]: 46.4 ± 5.0%

O=C(O)COc1ccc(Cl)cc1Cl [2,4-dichlorophenoxyacetic acid]
Callus producing seeds (%) [2, 13]: 15.5% | Number of callus producing seeds [2, 13]: 47 | Callus producing seeds (%) [2, 14]: 10.7% | Number of callus producing seeds [2, 14]: 18 | Callus producing seeds (%) [2, 15]: 15.7% | Number of callus producing seeds [2, 15]: 19 | Callus producing seeds (%) [2, 16]: 11.1% | Number of callus producing seeds [2, 16]: 38 | Fate of induced calli ([2]; MS media with higher than 4 mg/L of the hormone): the calli became brownish as they grew and eventually died | Calli Type I˜III (sum of types I to III) (%) [3, 17]: 8.5% | Calli showing Type I morphology (%) [3, 17]: 4.3% | Calli showing Type II morphology (%) [3, 17]: 0 (0) % | Calli showing Type III morphology (%) [3, 17]: 4.3% | Calli showing Type IV morphology (%) [3, 17]: 91.5% | Number of calli Type I˜III (sum of types I to III) [3, 17]: 4 | Number of calli showing Type I morphology [3, 17]: 2 | Number of calli showing Type II morphology [3, 17]: 0 (0) | Number of calli showing Type III morphology [3, 17]: 2 | Number of calli showing Type IV morphology [3, 17]: 43 | Calli Type I˜III (sum of types I to III) (%) [3, 18]: 5.6% | Calli showing Type I morphology (%) [3, 18]: 0 (0) % | Calli showing Type II morphology (%) [3, 18]: 0 (0) % | Calli showing Type III morphology (%) [3, 18]: 5.6% | Calli showing Type IV morphology (%) [3, 18]: 94.4% | Number of calli Type I˜III (sum of types I to III) [3, 18]: 1 | Number of calli showing Type I morphology [3, 18]: 0 (0) | Number of calli showing Type II morphology [3, 18]: 0 (0) | Number of calli showing Type III morphology [3, 18]: 1 | Number of calli showing Type IV morphology [3, 18]: 17 | Calli Type I˜III (sum of types I to III) (%) [3, 19]: 5.3% | Calli showing Type I morphology (%) [3, 19]: 0 (0) % | Calli showing Type II morphology (%) [3, 19]: 0 (0) % | Calli showing Type III morphology (%) [3, 19]: 5.3% | Calli showing Type IV morphology (%) [3, 19]: 94.7% | Number of calli Type I˜III (sum of types I to III) [3, 19]: 1 | Number of calli showing Type I morphology [3, 19]: 0 (0) | Number of calli showing Type II morphology [3, 19]: 0 (0) | Number of calli showing Type III morphology [3, 19]: 1 | Number of calli showing Type IV morphology [3, 19]: 18 | Calli Type I˜III (sum of types I to III) (%) [3, 20]: 0 (0) % | Calli showing Type I morphology (%) [3, 20]: 0 (0) % | Calli showing Type II morphology (%) [3, 20]: 0 (0) % | Calli showing Type III morphology (%) [3, 20]: 0 (0) % | Calli showing Type IV morphology (%) [3, 20]: 100% | Number of calli Type I˜III (sum of types I to III) [3, 20]: 0 (0) | Number of calli showing Type I morphology [3, 20]: 0 (0) | Number of calli showing Type II morphology [3, 20]: 0 (0) | Number of calli showing Type III morphology [3, 20]: 0 (0) | Number of calli showing Type IV morphology [3, 20]: 38

c1ccc(CNc2ncnc3nc[nH]c23)cc1 [6-benzylaminopurine]
Callus producing seeds (%) [2, 21]: 0 (0) % | Number of callus producing seeds [2, 21]: 0 (0) | Callus producing seeds (%) [2, 22]: 0 (0) % | Number of callus producing seeds [2, 22]: 0 (0) | Callus producing seeds (%) [2, 23]: 0 (0) % | Number of callus producing seeds [2, 23]: 0 (0) | Callus producing seeds (%) [2, 24]: 0 (0) % | Number of callus producing seeds [2, 24]: 0 (0) | Number of shoots over 5 mm ([4]; growth regulator 1 mg/L): 19 | Number of shoots per callus lump ([4]; growth regulator 1 mg/L): 5.2 | Number of shoots over 5 mm ([4]; growth regulator 4 mg/L): 1 | Number of shoots per callus lump ([4]; growth regulator 4 mg/L): 3.7 | Number of calli with shoots ([5]; growth regulator 1 mg/L): 17 | Number of calli with shoots ([5]; growth regulator 4 mg/L): 9

O=C(CO)[C@@H](O)[C@H](O)[C@H](O)CO [Fructose, fructose]
Calli with green shoot (%) [1, 12]: 17.3 ± 2.7% | Number of shoots per callus lump [1, 12]: 4.4 ± 0.8 | Shoots over 2 mm (%) [1, 12]: 12.6 ± 3.0%

O=C[C@H](O)[C@@H](O)[C@@H](O)[C@H](O)CO [Galactose, galactose]
Calli with green shoot (%) [1, 12]: 0% | Number of shoots per callus lump [1, 12]: 0 | Shoots over 2 mm (%) [1, 12]: 0%

c1coc(CNc2ncnc3[nH]cnc23)c1 [Kinetin, kinetin]
Number of shoots over 5 mm ([4]; growth regulator 1 mg/L): 0 | Number of shoots per callus lump ([4]; growth regulator 1 mg/L): 3.0 | Number of shoots over 5 mm ([4]; growth regulator 4 mg/L): 0 | Number of shoots per callus lump ([4]; growth regulator 4 mg/L): 1.7 | Number of calli with shoots ([5]; growth regulator 1 mg/L): 8 | Number of calli with shoots ([5]; growth regulator 4 mg/L): 7

OC[C@H]1O[C@@](CO)(O[C@H]2O[C@H](CO)[C@@H](O)[C@H](O)[C@H]2O)[C@@H](O)[C@@H]1O [Sucrose, sucrose]
Calli with green shoot (%) [1, 12]: 45.3 ± 9.3% | Number of shoots per callus lump [1, 12]: 4.5 ± 0.1 | Shoots over 2 mm (%) [1, 12]: 4.5 ± 0.2%

O=C(Nc1ccccc1)Nc1cnns1 [TDZ, thidiazuron]
Number of shoots over 5 mm ([4]; growth regulator 1 mg/L): 14 | Number of shoots per callus lump ([4]; growth regulator 1 mg/L): 4.8 | Number of shoots over 5 mm ([4]; growth regulator 4 mg/L): 1 | Number of shoots per callus lump ([4]; growth regulator 4 mg/L): 4.1 | Growth of regenerated plants ([4]; high concentration of TDZ): severely retarded | Morphology of regenerated plants ([4]; high concentration of TDZ): plants with abnormal morphology were observed at a high frequency | Plant regeneration and further growth ([4]; only the TDZ included): plant regeneration was observed, but the plants did not continue growing | Number of calli with shoots ([5]; growth regulator 1 mg/L): 17 | Number of calli with shoots ([5]; growth regulator 4 mg/L): 10
